Here are results for 15 compounds from patent US12286418B2, “Compounds and methods for treating or preventing bacterial infections” (priority 2019, dated 2025).

Several values for one entry are separate records, joined by “and”; a condition that tells them apart may be missing. Equal entries are not always repeated. Entries after “also recorded” stand apart in the source; their conditions may differ.

Test [1] deals with T1, OXA-48 (Klebsiella pneumoniae, UniProt Q6XEC0). As to the kind of experiment: OXA-48 inhibition assay using nitrocefin as reporter. It is filed as biochemical. Also on record: His-tag (N, cleaved yes); made in house; host or cells: E. coli BL21(DE3), pET28a. The following applies: for potency/activity against OXA-48 in words: purified OXA-48, compared with CDD-97 where a derivative; for fold reduction in potency (OXA-48 Ki) compared to CDD-97: relative to CDD-97. Here is the method: Nitrocefin, a chromogenic β-lactam substrate, was used as a reporter in all inhibition assays with the various OXA enzymes and various compounds. Nitrocefin is not stable in aqueous solution long-term. For these assays, nitrocefin stocks were prepared in DMSO, stored at −20° C. and used within 2 weeks of dissolving. To avoid freeze-thawing, fresh stocks were always used. The Km of nitrocefin was determined prior to inhibition assays by performing steady state kinetics. Assays were performed using a DU800 spectrophotometer at room temperature in 50 mM HEPES pH 7.5, 15 mM NaHCO3, and 0.02% tween 20 buffer. Hydrolyzed nitrocefin was detected at 482 nm. For a single experiment, a series of at least 5 nitrocefin concentrations were tested against the given enzyme in duplicate and the initial velocities were measured and fit to the Michaelis-Menten equation. Experiments were repeated twice, and error reported is the standard error of the mean.
T1 sequence (Q6XEC0 23-265, looked up): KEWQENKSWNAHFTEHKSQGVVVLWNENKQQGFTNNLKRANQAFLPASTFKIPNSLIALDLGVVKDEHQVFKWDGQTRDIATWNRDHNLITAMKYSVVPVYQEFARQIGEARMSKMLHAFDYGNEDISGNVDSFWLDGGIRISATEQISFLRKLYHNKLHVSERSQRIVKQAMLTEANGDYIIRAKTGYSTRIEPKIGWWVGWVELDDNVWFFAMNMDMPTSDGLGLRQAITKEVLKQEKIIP
Compounds were tested for inhibition of a given OXA enzyme from hydrolyzing nitrocefin using a Tecan plate reader. […] A control with no compound was included in each run. For each compound concentration, the velocity of nitrocefin hydrolysis was determined at 482 nm and fit to the Morrison equation. […] The average Ki of separate experiments, each of which consisted of duplicate runs, is reported and error was quantified as the standard deviation.
The activity of these derivatives was assessed using inhibition assays with purified OXA-48. Compounds were tested for the ability to inhibit OXA-48 from hydrolyzing nitrocefin, a chromogenic β-lactam substrate routinely used in β-lactamase inhibition assays. Nitrocefin contains a conjugated ring system that is readily hydrolyzed and produces a visible color shift from yellow to red upon hydrolysis (O'Callaghan, et al., 1972, Antimicrob. Agents Chemother. 1:283-288). The rate of nitrocefin hydrolysis in the presence of a constant amount of OXA-48 and increasing concentrations of a given compound of interest was monitored at 482 nm. These rates were plotted against compound concentration to determine the inhibition constant (Ki) against OXA-48. […] SPR was performed using 6×-His-OXA-48 enzyme that was amine-coupled on a Ni-NTA Chip. Meropenem, which covalently binds and inhibits OXA-48, was used as a positive control.

The target of test [2] is T2, OXA-58 (Acinetobacter baumannii, UniProt Q2TR58).
T2 construct: His-tag (N, cleaved yes); made in house; host or cells: E. coli BL21 (DE3), pET28a
T2 sequence (Q2TR58 19-280): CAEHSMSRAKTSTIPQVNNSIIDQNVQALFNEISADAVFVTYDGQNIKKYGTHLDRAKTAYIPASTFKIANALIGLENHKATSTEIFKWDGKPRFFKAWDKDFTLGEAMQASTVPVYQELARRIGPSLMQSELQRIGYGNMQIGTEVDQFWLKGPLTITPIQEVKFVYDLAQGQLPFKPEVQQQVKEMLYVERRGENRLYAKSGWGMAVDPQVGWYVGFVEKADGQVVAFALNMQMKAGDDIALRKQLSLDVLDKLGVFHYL
The experiment in a line: biochemical. As for the experimental part: (§1) For each of the OXA enzymes, the nitrocefin steady states were determined so nitrocefin could be used as a reporter in the inhibition assays. Nitrocefin (MilliporeSigma, Burlington, MA) was kept at −20° C. upon purchase and thawed at room temperature and diluted in DMSO for usage. DMSO stocks were aliquoted and kept at −20° C. for only up to 2 weeks after dissolving. To determine the steady state kinetic parameters for nitrocefin hydrolysis, reactions were monitored on a DU-800 spectrophotometer (Beckman Coulter, Brea, CA) at 25° C. Enzyme and substrate samples were diluted using 50 mM HEPES, pH 7.5, 15 mM NaHCO3, and 0.02% Tween-20. Hydrolyzed nitrocefin was tracked at 482 nm. For a single experiment, a series of at least 5 nitrocefin concentrations was tested against the given enzyme. […] The Km values determined for each enzyme was used to determine the amount of nitrocefin to use in the inhibition assays.
(§2) The inhibition activity for compounds were assessed using inhibition assays with nitrocefin as the reporter. […] Compounds were tested at up to 500-4000 μM depending on solubility and absorbance output. The initial velocity of nitrocefin hydrolysis was monitored using a Tecan M200 Infinite Pro plate reader (Tecan, Mannedorf, Switzerland). […] Ligand efficiency (LE) was calculated using a previously reported equation: LE=1.37 (pKi)/(# non-Hydrogen atoms). […]

The target of test [3] is T3, OXA-24 (Acinetobacter baumannii, UniProt Q8RLA6).
T3 construct: His-tag (N, cleaved yes); made in house; host or cells: E. coli BL21 (DE3), pET28a
T3 sequence (Q8RLA6 entry or part of it): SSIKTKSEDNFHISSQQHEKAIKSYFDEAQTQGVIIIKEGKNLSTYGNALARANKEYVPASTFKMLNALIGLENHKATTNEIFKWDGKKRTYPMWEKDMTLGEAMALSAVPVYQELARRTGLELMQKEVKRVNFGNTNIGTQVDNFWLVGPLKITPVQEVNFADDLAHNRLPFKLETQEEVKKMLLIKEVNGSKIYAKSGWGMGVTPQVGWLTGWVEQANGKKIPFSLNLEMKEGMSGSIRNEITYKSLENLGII
As to the kind of experiment: Example 8 inhibition assay with nitrocefin (aromatic acids): OXA-24. The test is classed as biochemical. Here is the method:
as §1, §2

Test [4] concerns the target T1, OXA-48. As to the kind of experiment: Example 8 inhibition assay with nitrocefin (aromatic acids): OXA-48. Also on record: His-tag (N, cleaved yes); made in house; host or cells: E. coli BL21(DE3), pET28a. It is filed as biochemical. Here is the method:
For each of the OXA enzymes, the nitrocefin steady states were determined so nitrocefin could be used as a reporter in the inhibition assays. Nitrocefin (MilliporeSigma, Burlington, MA) was kept at −20° C. upon purchase and thawed at room temperature and diluted in DMSO for usage. DMSO stocks were aliquoted and kept at −20° C. for only up to 2 weeks after dissolving. To determine the steady state kinetic parameters for nitrocefin hydrolysis, reactions were monitored on a DU-800 spectrophotometer (Beckman Coulter, Brea, CA) at 25° C. Enzyme and substrate samples were diluted using 50 mM HEPES, pH 7.5, 15 mM NaHCO3, and 0.02% Tween-20. Hydrolyzed nitrocefin was tracked at 482 nm. For a single experiment, a series of at least 5 nitrocefin concentrations was tested against the given enzyme. Each substrate concentration was tested in duplicate and initial velocities were averaged (for a given concentration) and fit the Michaelis-Menten equation. The experiment was repeated for rigor. The Km values determined for each enzyme was used to determine the amount of nitrocefin to use in the inhibition assays.
The inhibition activity for compounds were assessed using inhibition assays with nitrocefin as the reporter. A constant concentration of nitrocefin and the given enzyme was used with increasing concentrations of the compound in question. […] The enzymes OXA-24, OXA-48 and OXA-58 were used in their corresponding inhibition experiments at a constant concentration of 0.2 nM, 0.2 nM and 0.1 nM respectively. Compounds were tested at up to 500-4000 μM depending on solubility and absorbance output. The initial velocity of nitrocefin hydrolysis was monitored using a Tecan M200 Infinite Pro plate reader (Tecan, Mannedorf, Switzerland). The velocities at various compound concentrations were fit to the Morrison Tight Binding equation to determine the Ki value for the given fragment with the given OXA enzyme. Ligand efficiency (LE) was calculated using a previously reported equation: LE=1.37 (pKi)/(# non-Hydrogen atoms). […]

The target of test [5] is T1, OXA-48. As to the kind of experiment: Surface plasmon resonance binding to immobilized 6x-His-OXA-48. Also on record: His-tag (N, cleaved yes); made in house; host or cells: E. coli BL21(DE3), pET28a. The following applies: SPR, immobilized His-OXA-48, positive control. As for the experimental part:
6×-His-OXA-48 was capture/amine-coupled on a Ni-NTA Chip at a density of ˜5000 RU. Running buffer was 10 mM HEPES pH 7.4, 150 NaCl, 50 mM NaHCO3, 0.005% Tween-20, 2% DMSO. Concentration gradients of each compound were created from 0-15 μM using OneStep Injections in at least triplicates for meropenem and CDD-97.
Synthon-derivatives were created, without DNA tags, based on high OXA-48 enrichment and minimal NTC enrichment. The activity of these derivatives was assessed using inhibition assays with purified OXA-48. Compounds were tested for the ability to inhibit OXA-48 from hydrolyzing nitrocefin, a chromogenic β-lactam substrate routinely used in β-lactamase inhibition assays. Nitrocefin contains a conjugated ring system that is readily hydrolyzed and produces a visible color shift from yellow to red upon hydrolysis (O'Callaghan, et al., 1972, Antimicrob. Agents Chemother. 1:283-288). The rate of nitrocefin hydrolysis in the presence of a constant amount of OXA-48 and increasing concentrations of a given compound of interest was monitored at 482 nm. These rates were plotted against compound concentration to determine the inhibition constant (Ki) against OXA-48. Compounds with promising activity were also assessed for binding using surface plasmon resonance (SPR). SPR was performed using 6×-His-OXA-48 enzyme that was amine-coupled on a Ni-NTA Chip. Meropenem, which covalently binds and inhibits OXA-48, was used as a positive control.
Background: SPR reads the build-up and loss of mass on a sensor chip optically.

Test [6] has as its target T1, OXA-48. The following applies: non-β-lactam inhibitors; cited from earlier work.
The mark [7] stands for this setting: purified OXA-48, nitrocefin hydrolysis, Morrison fit.

Usually Ki stands for the equilibrium dissociation constant of an inhibitor or competing ligand from its target. Usually Kd stands for the equilibrium constant for the complex coming apart. A low value points to higher affinity.

As to `CCOc1ccccc1N1CCN(c2ncnc(N3CCC(C(N)=O)CC3)n2)CC1` [CDD-553, 1-(4-(4-(2-ethoxyphenyl)piperazin-1-yl)-1,3,5-triazin-2-yl)piperidine-4-carboxamide], the “potency/activity against OXA-48 in words” value in test [1] is given as “significant loss of inhibitory activity”. Moreover, the “Ki for OXA-48 inhibition” value in test [1] (setting [7]) is “No binding”.

The compound `CCOc1ccccc1N1CCN(c2ncnc(N3CCNC(C(=O)O)CC3)n2)CC1` (stereo not drawn) [CDD-559] showed a Ki in test [1] (setting [7]) of 29000 nM. For the same compound, in test [1], the “fold reduction in potency (OXA-48 Ki) compared to CDD-97” value is reported as “approximately 50 fold”.

Consider `CCOc1ccccc1N1CCN(c2nc(N)nc(N3CCC(C(=O)O)CC3)n2)CC1` [CDD-616, 1-(4-amino-6-(4-(2-ethoxyphenyl)piperazin-1-yl)-1,3,5-triazin-2-yl)piperidine-4-carboxylic acid], for which the “potency/activity against OXA-48 in words” value in test [1] is “does not have a large effect on potency; also recorded: retain potency; also recorded: did not affect potency”. In test [1] (setting [7]), this compound gave an inhibition constant (Ki) of 520 ± 10 nM.

With `CCOc1ccccc1N1CCN(c2ncnc(N3CCC(C(=O)O)C(N)C3)n2)CC1` (stereo not drawn) [CDD-825], in test [1] (setting [7]), the Ki was 17000 nM and 16900 nM. In addition, in test [1], the “fold reduction in potency (OXA-48 Ki) compared to CDD-97” value is recorded as “approximately 30 fold”.

Regarding `CCOc1ccccc1N1CCN(c2ncnc(N3CCC(S(=O)(=O)O)CC3)n2)CC1` [CDD-862, 1-(4-(4-(2-ethoxyphenyl)piperazin-1-yl)-1,3,5-triazin-2-yl)piperidine-4-sulfonic acid], the Ki was determined as 260 nM in test [1] (purified OXA-48, nitrocefin) and 270 ± 20 nM in test [1] (setting [7]).

Regarding `CCOc1ccccc1N1CCN(c2nc(NCCCCN)nc(N3CCC(C(=O)O)CC3)n2)CC1` [CDD-863], the “potency/activity against OXA-48 in words” value in test [1] was “does not have a large effect on potency”. The compound further showed a Ki in test [1] (setting [7]) of 450 nM.

Turning to `CCOc1ccccc1N1CCN(c2nc(NCCN)nc(N3CCC(C(=O)O)CC3)n2)CC1` [CDD-864, 1-(4-((2-aminoethyl)amino)-6-(4-(2-ethoxyphenyl)piperazin-1-yl)-1,3,5-triazin-2-yl)piperidine-4-carboxylic acid], the affinity in test [1] (setting [7]), expressed as Ki, was 600 nM.

Turning to `CCOc1ccccc1CCCNc1ncnc(N2CCC(C(=O)O)CC2)n1` [CDD-899], the Ki in test [1] (setting [7]) was found to be 15000 nM.

As to `O=C(O)c1ccccc1O` [Compound 1.1], the Ki in test [2] is 379000 ± 44000 nM. Moreover, the “inhibition activity against OXA-24 in words” value in test [3] is “low millimolar activity”. In addition, the “inhibition activity against OXA-48 in words” value in test [4] was “low millimolar activity”.

As for `O=C(O)c1ccc(-c2ccc(C(=O)O)cc2)cc1` [Compound 2.1], in test [4] (LE=1.37 (pKi)/(# non-Hydrogen atoms)), the “ligand efficiency (LE) for OXA-48 inhibition” value is recorded as 0.36. Further, the Ki in test [4] (OXA-48 0.2 nM, 25 μM nitrocefin) turned out to be 17200 ± 1000 nM.

In the case of `C[C@@H](O)[C@H]1C(=O)N2C(C(=O)O)=C(S[C@@H]3CN[C@H](C(=O)N(C)C)C3)[C@H](C)[C@H]12` [Meropenem, reference compound], in test [5], the affinity, expressed as Kd, was 423.5 ± 0.2 nM.

On to `CCOc1ccccc1N1CCN(c2nc(NCCN)nc(N3CCC(C(=O)O)CC3)n2)CC1` [drawing 44], for which, in test [1] (setting [7]), the affinity, expressed as Ki, was 840 ± 30 nM.

For the compound `CCOc1ccccc1N1CCN(c2ncnc(N3CCC(S(=O)(=O)O)CC3)n2)CC1` [drawing 46], in test [1] (setting [7]), the inhibitory constant (Ki) turned out to be 260 ± 40 nM. Against the preceding compound, the Ki is about 3.2-fold lower.

Turning to `O=C(NC1CCNCC1)[C@@H]1CC[C@@H]2CN1C(=O)N2OS(=O)(=O)O` [relebactam], in test [6], the “efficacy against OXA-48 in words” value is “ineffective against OXA-48”.

Consider `O=C(O)C[C@@H]1CC[C@H](NC(=O)Cc2cccs2)B(O)O1` [vaborbactam], for which the “efficacy against OXA-48 in words” value in test [6] is on record as “ineffective against OXA-48”.
